From patent publication EP0928291B1, “3-MERCAPTOACETYLAMINO-1,5-SUBSTITUTED-2-OXO-AZEPAN DERIVATIVES USEFUL AS INHIBITORS OF MATRIX METALLOPROTEINASE” (Aventis Pharmaceuticals Inc., priority 1996, dated 1998)

Assays:
Format in all cases: biochemical
[1] = target: T1, MMP-2 (Homo sapiens, UniProt P08253); experiment: Determination of Inhibition Constant (Ki) for MMP-2, fluorogenic substrate assay; details: recombinant MMP-2, substrate Mca-Pro-Leu-Gly-Leu-Dpa-Ala-Arg-NH2, 37°C, pH 7.6, [S] = 1 µM, [MMP-2] = 0.4 nM
T1 construct: made in house; host or cells: Pichia pastoris (strains KM71 / SMD1168, clone 24S)
T1 sequence (P08253 110-660): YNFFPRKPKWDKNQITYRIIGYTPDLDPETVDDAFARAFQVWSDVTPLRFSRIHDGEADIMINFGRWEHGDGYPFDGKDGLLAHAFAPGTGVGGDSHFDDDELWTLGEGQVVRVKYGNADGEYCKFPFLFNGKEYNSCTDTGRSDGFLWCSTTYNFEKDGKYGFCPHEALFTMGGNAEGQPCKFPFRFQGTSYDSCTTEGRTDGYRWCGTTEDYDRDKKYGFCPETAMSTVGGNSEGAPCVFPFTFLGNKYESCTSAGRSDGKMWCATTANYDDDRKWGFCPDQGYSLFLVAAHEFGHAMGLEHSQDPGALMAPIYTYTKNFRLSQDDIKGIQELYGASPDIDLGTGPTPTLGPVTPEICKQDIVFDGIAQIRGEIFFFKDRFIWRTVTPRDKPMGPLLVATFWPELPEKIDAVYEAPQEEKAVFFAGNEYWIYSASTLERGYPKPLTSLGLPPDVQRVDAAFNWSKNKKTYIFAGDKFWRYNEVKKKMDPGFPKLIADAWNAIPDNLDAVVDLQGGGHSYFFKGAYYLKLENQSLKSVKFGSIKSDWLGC
Text: Recombinant MMP-2 was purified from the fermentation broth of yeast Pichia pastoris that carries the integrated MMP-2 gene into its chromosome. In brief, the full-length cDNA for MMP-2 was obtained by reverse transcription of RNA from human melanoma A375M cell line by the reverse transcriptase polymerase chain reaction (RT-PCR) using sequence specific oligonucleotides. The nucleotide sequence was confirmed by Taq cycle sequencing. The cDNA was ligated into the Pichia pastoris expression vector pHIL-D2 in such a way that the expression of pro-MMP2 is under the control of the methano inducible alcohol oxidase promoter. The expression construct was digested with either SalI or NsiI and used to transform the Pichia pastoris strains KM71 and SMD1168. […]
The active MMP-2 was obtained by activation of proMMP-2 at 37°C for 1 h with 4-aminophenylmercuric acetate which was then removed by a Sephadex G-50 spin column. […] The increase in fluorescence is monitored (λex 328 nm, λem 393 nm). […] Under these conditions, the measured Ki, app is close to true Ki.
(§1) The Ki for a competitive inhibitor is calculated using: v0/vi = (1 + [I]/Ki, app) and Ki = Ki, app/(1 + [S]/Km), where v0 is the initial rate in the absence of inhibitor, vi is the initial rate in the presence of inhibitor at the concentration of [I], [S] is the substrate concentration, and Km is the Michaelis constant. […]

[2] = target: T2, MMP-3 (Homo sapiens, UniProt P08254); experiment: Determination of Inhibition Constant (Ki) for MMP-3, fluorogenic substrate assay; details: activated MMP-3, substrate Mca-Pro-Leu-Gly-Leu-Dpa-Ala-Arg-NH2, 37°C, pH 7.6, [S] = 1 µM, [MMP-3] = 1 nM
T2 construct: The active MMP-3 was obtained by treatment of proMMP-3 with trypsin; endogenous in cells; host or cells: human rheumatoid synovial fibroblasts stimulated with macrophage-conditioned medium (secreted proenzyme purified from the culture medium)
Procedure: ProMMP-3 (EC 3.4.24.17; Stromelysin-1) was purified from culture medium of human rheumatoid synovial fibroblasts stimulated with macrophage-conditioned medium according to Okada, Y. et al., J. Biol. Chem. 261, 14245-14255 (1986). The active MMP-3 was obtained by treatment of proMMP-3 with trypsin (5 µg/mL) at 37°C for 30 min, followed by addition of soybean trypsin inhibitor (50 µg/mL). Aliquots of the activated MMP-3 were stored at -20°C.
The activated MMP-3 is assayed using a fluorogenic substrate, Mca-Pro-Leu-Gly-Leu-Dpa-Ala-Arg-NH2, Knight, C.G. et al., FEBS Lett. 296, 263-266 (1992), at 37°C in an assay buffer containing 50 mM Tris, pH 7.6, 0.2 M NaCI, 50 mM CaCl2, and 0.02% Brij-35. The increase in fluorescence due to cleavage of Gly-Leu peptide bond by MMP-3 was monitored with Perkin-Elmer LS50B Fluorimeter (λex 328 nm, λem 393 nm, excitation slit 2.5, emission slit 10). Substrate and inhibitor stock solutions were made in DMF and 0.1% HCl-DMF, respectively. […] Under these conditions, the measured Ki, app is close to true Ki.
as §1

[3] = target: T3, MMP-12 (macrophage metalloelastase) (Homo sapiens, UniProt P39900); experiment: Determination of the inhibition constant (Ki) for MMP-12, fluorogenic substrate assay (cuvette or microtiter plate); details: substrate Mca-Pro-Leu-Gly-Leu-Dpa-Ala-Arg-NH2, 25C, pH 7.6, [MMP-12] = 2 nM, cuvette or microtiter plate method
T3 construct: made in house
Procedure: MMP-12 (EC 3.4.24.65) was cloned, expressed and purified according to Shapiro, S.D. et al., J Biol. Chem. 268, 23824-23829 (1993). […] Aliquots of MMP-12 were stored at -70C.
The potency of inhibitors of MMP-12 was measured using either quartz cuvettes or microtiter plates. The activity of MMP-12 was measured using a fluorogenic substrate, Mca-Pro-Leu-Gly-Leu-Dpa-Ala-Arg-NH2, Knight, C.G. et al., FEBS Lett. 296,263-266 (1992), at 25C in an assay buffer containing 50 mM Tris, pH 7.6, 0.2 M NaCl, 50 mM CaCl2, and 0.02% Brij-35. The increase in fluorescence due to cleavage of Gly-Leu peptide bond by MMP-12 was monitored with a Perkin-Elmer LS50B Fluorimeter (λex 328 nm, λem 393 nm, excitation slit 2.5, emission slit 10) for the cuvette assay and with a Molecular Devices Fmax fluorescence plate reader (λex 320 nm, λem 405 nm) for the microtiter plate assay. Substrate and inhibitor stock solutions were made in N,N,dimethylformamide (DMF) and 0.1% HCI-DMF, respectively. […]
Ki values were determined using the microtiter plate method in a manner similar to that described for the cuvette method with some modifications. […] Cleavage of substrate was recorded every 30 seconds for 30 minutes and progress curves were generated. […]

T2 sequence (P08254 100-477): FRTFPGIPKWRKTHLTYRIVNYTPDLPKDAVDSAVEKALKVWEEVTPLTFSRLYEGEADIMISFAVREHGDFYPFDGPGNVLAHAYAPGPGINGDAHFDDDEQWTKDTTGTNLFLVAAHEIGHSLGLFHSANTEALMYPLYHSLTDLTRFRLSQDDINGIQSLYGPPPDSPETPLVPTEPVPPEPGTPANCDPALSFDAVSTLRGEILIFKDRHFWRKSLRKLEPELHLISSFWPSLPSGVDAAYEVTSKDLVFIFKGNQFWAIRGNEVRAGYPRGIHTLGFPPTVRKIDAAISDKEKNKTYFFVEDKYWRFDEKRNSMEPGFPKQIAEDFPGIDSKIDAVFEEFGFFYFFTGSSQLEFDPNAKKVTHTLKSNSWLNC
T3 sequence (P39900 106-263 limits assumed): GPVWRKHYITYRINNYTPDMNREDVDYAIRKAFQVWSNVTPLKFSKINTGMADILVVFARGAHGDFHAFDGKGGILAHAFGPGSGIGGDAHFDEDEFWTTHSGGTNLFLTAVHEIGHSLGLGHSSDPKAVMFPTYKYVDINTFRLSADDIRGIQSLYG

Ki [1] | Ki [2] | Ki [3] | SMILES
1.2 nM | 39 nM | 18 nM | CNC(=O)C(Cc1ccccc1)N1CCC(c2ccccc2)CC(NC(=O)C(S)CCCCN2C(=O)c3ccccc3C2=O)C1=O (stereo not drawn) [Compound II-1, 2H-Isoindole-2-hexanamide, N-[hexahydro-1-[2-(methylamino)-2-oxo-1-(phenylmethyl)ethyl]-2-oxo-5-phenyl-1H-azepin-3-yl]-1,3-dihydro-α-mercapto-1,3-dioxo-, [3S-(1(R*), 3α, 5α]]-]
 | 73 nM | 53 nM | CNC(=O)C(Cc1ccccc1)N1CCC(c2ccccc2)CC(NC(=O)C(S)CCCCN2C(=O)c3ccccc3C2=O)C1=O (stereo not drawn) [Compound III-1, 2H-Isoindole-2-hexanamide, N-[hexahydro-1-[2-(methylamino)-2-oxo-1-(phenylmethyl)ethyl]-2-oxo-5-phenyl-1H-azepin-3-yl]-1,3-dihydro-α-mercapto-1,3-dioxo-, [3S-[1(R*), 3α, 5β]]-]
